Series [1] has as its system S. pneumoniae (30 clinical isolates). The series is classed as cell-based, Streptococcus pneumoniae. The source says:
(§1) Thirty (30) Pneumococcal clinical isolates were obtained from University of Malaya Medical Centre (UMMC). For broad-spectrum activity of AMPs, E. coli ATCC 25922, Staphylococcus aureus ATCC 25923, P. aeruginosa ATCC 15442, Acinetobacter baumanii ATCC 15308, and one clinical isolate of each methicillin resistant S. aureus (MRSA), […], citrobacter spp., and K. pneumoniae were used in this study.
(§2) The minimum inhibitory concentration (MIC) of the peptides against 30 pneumococcal isolates was determined by broth microdilution protocol as indicated by the CLSI guidelines (Clinical and Laboratory Standards Institute). Briefly, bacterial strains were grown for 18–24 hr at 37°C under 5% CO2. Direct suspension of the colonies were made in cationically-adjusted Müeller-Hinton broth (CAMHB) and adjusted to OD 625 0.08–0.1 which corresponds to 1 ~ 2 x10^8 CFU/ml followed by serial ten-fold dilutions to give 1x10^6 CFU/ml. 50μl of bacterial suspension were added to 96-well round bottom microtiter plates containing equal volume of peptides at different concentrations (1.95, 3.90, 7.81, 15.62, 31.25, 62.5, 125, 250μg/ml) and the 96-well plates were incubated for 20-24hr at 37°C in the presence of 5% CO2.

The test system of series [2] is Acinetobacter baumanii ATCC 15308. The series is classed as cell-based.
From the text: as §1, §2

The subject of another series is E. coli ATCC 25922. The series is classed as cell-based.
From the text: as §1, §2

Another series relates to Enterococcus cloacae. The series is classed as cell-based.
From the text: as §1, §2

The next series deals with K. pneumoniae. In kind it is cell-based.
From the text: as §1, §2

The test system of series [3] is Methicillin resistant S. aureus (MRSA). In kind it is cell-based.
From the text: as §1, §2

For the next series, the system named is P. aeruginosa ATCC 15442. The series is classed as cell-based.
From the text: as §1, §2

For another series, the system named is citrobacter spp. In kind it is cell-based.
From the text: as §1, §2

A further series has as its system S. aureus ATCC 25923. The series is classed as cell-based, Staphylococcus aureus.
From the text: as §1, §2

The subject of a further series is E. coli. Particulars: cited from earlier work.
For a further series, the system named is S. aureus. The following applies: cited from earlier work.
Series [4] deals with NL-20 normal lung cell line. In kind it is cell-based, human. The method, then: (§3) CellTiter 96 AQueous Non-Radioactive Cell Proliferation assay (Promega, USA) was used to evaluate the cytotoxic effects of peptides. WRL-68 (ATCC CL-48) and NL-20 (ATCC CRL2503) cell lines were purchased from American Type Culture Collection (ATCC, USA). The cell lines were grown in Dulbecco's modified Eagle's medium (DMEM) and Ham’s F-12 medium, respectively. Cells were supplemented with 10% (v/v) fetal bovine serum (FBS) in T75 flasks and incubated at 37°C in the presence of 5% CO2. Cells were seeded into 96-well plates at a density of 1×10^4 and 3×10^4 cells per well, respectively. Peptides were added to the wells at different concentrations (1.95, 3.90, 7.81, 15.62, 31.25, 62.5, 125, and 250μg) and plates were incubated at 37°C under 5% CO2 for 24, 48, and 72 hrs. Medium with and without cells was used as positive and negative controls, respectively. After incubation, 20μl of the reagent were added to each well and incubated for 1 hr at 37°C under 5% CO2. Metabolically active cells convert the yellow MTS to purple formazan, allowing for monitoring of the reaction. The absorbance was monitored at 490 nm using GloMax Multi Detection System (Promega, USA). The percentage of viable cells was calculated according to the following formula: 100 (AT-AB/AC-AB), where AT and AC are the absorbance of treated and control cells (100% survival). AB is the absorbance of medium alone. The assay was done in triplicate.

Series [5] concerns WRL-68 normal liver cell line. The series is classed as cell-based, human. The method, then: as §3
Another series deals with Streptococcus pneumoniae. Briefly: Time killing assay. The series is classed as cell-based. Particulars: 1×MIC, MHB, 37°C, sampled every 30 min to 240 min, triplicate. The method, then:
The bactericidal activities of peptides were performed as described previously. […] 10μl of bacterial suspensions were removed at various time intervals (30, 60, 90, 120, 150, 180, 210, and 240 min), serially diluted in PBS and plated onto Columbia agar with 5% sheep blood for 20-24hr at 37°C in the presence of 5% CO2 to obtain viable colonies. Erythromycin and ceftriaxone were used as positive control and the assay was performed in triplicate.

The test system of the next series is human erythrocytes. Briefly: Hemolytic activity assay. The series is classed as cell-based. The following applies: 250μg/ml; 4% human RBCs in PBS, 1hr, 37°C, absorbance 560 nm, relative to 0.1% Triton X-100, triplicate. The method, then:
The hemolytic activity of the peptides was tested using human erythrocytes as described previously. Human red blood cells (RBCs) were freshly collected from a healthy donor, washed three times using sterile phosphate buffered saline (PBS) and centrifuged at 2000 rpm for 10 min until the upper solution became clear. RBCs were diluted to a final concentration of 4%, and 100μl of peptides at different concentrations (1.95 to 250μg/ml) were mixed with equivalent volumes of erythrocyte suspensions. After 1hr of incubation at 37°C, the cells were centrifuged at 2000 rpm for 10 min and the absorbance of the supernatants was measured at 560 nm using GloMax Multi Detection System (Promega, USA). PBS and 0.1% Triton X-100 were used as negative and positive controls, respectively. The assay was done in triplicate, and percentage of hemolysis was calculated using the following formula: 100% hemolysis = 100 (Apeptide-APBS) / (Atriton-APBS). We obtained the blood from the Blood Bank of University […] Medical Centre and ethical clearance for this work was approved by the Scientific and Ethical Committee of UMMC (Ethics Committee/IRB Reference No: 321.4). Written informed consent was obtained for each collection.

Where [6] appears, read: numbers in parentheses are micromolar concentrations, unit of the source corrected.
The mark [7] stands for this setting: numbers in parentheses are micromolar concentrations.

In brackets after ≈: the same amount, converted by molar mass. Like-named read-outs stand apart in the source and are kept apart here. Positions of bridges follow the written chain, without caps; N, C: chain ends. Residues, ends and D or L forms follow the SMILES beside them.

The source of these data is paper PMC4457802 (PLoS ONE, 2015).

Turning to `CC[C@H](C)[C@H](NC(=O)[C@H](CCSC)NC(=O)[C@H](C)NC(=O)[C@@H]1CCCN1C(=O)[C@@H](NC(=O)[C@@H](NC(=O)[C@H](CCCCN)NC(=O)[C@@H](NC(=O)[C@H](CC(C)C)NC(=O)CNC(=O)CNC(=O)[C@H](CC(C)C)NC(=O)[C@@H](N)Cc1ccccc1)[C@@H](C)CC)[C@@H](C)CC)C(C)C)C(=O)N[C@H]1CSSC[C@@H](C(=O)O)NC(=O)[C@H](CCCCN)NC(=O)[C@H](CCCCN)NC(=O)[C@H]([C@@H](C)O)NC(=O)[C@H](C(C)C)NC(=O)[C@H](C)NC1=O` [Ranalexin, reference compound] (H-FLGGLIKIVPAMICAVTKKC-OH; disulfide 14-20; N-terminus assumed), the MIC S. pneumoniae (30 clinical isolates), in parentheses in [1] (30 clinical isolates) is 62.5 µg/mL (≈ 29.7 µM). In addition, the “MIC Acinetobacter baumanii ATCC 15308, in parentheses” value in [2] (ATCC 15308) is recorded as >250 (>118) micromolar. In the series with E. coli ATCC 25922 (ATCC 25922), the MIC E. coli ATCC 25922, in parentheses came out at 62.5 µg/mL (≈ 29.7 µM). The “MIC Enterococcus cloacae, in parentheses” value in the series on Enterococcus cloacae is recorded as >250 (>118) micromolar. For the same compound, in the series with K. pneumoniae, the “MIC K. pneumoniae, in parentheses” value is >250 (>118) micromolar. Also, in [3] (Methicillin resistant), the MIC MRSA, in parentheses is 31.2 µg/mL (≈ 14.9 µM). The MIC P. aeruginosa ATCC 15442, in parentheses with P. aeruginosa ATCC 15442 (ATCC 15442) came out at 125 µg/mL (≈ 59.4 µM). Besides, the “MIC citrobacter spp, in parentheses” value in the series with citrobacter spp is reported as >250 (>118) micromolar. Also, the MIC S. aureus ATCC 25923, in parentheses in the series with S. aureus ATCC 25923 (ATCC 25923) was 31.2 µg/mL (≈ 14.9 µM). In the series on E. coli, the “MIC against E. coli” value was 32 µg/mL (≈ 15.2 µM). For the same compound, the “MIC against S. aureus” value in the series on S. aureus is 4 µg/mL (≈ 1.9 µM).

“FLGGLIKKWPWWPWRR-NH2 [RN7-IN9, hybrid peptide of ranalexin and indolicidin]”: the “MIC S. pneumoniae (30 clinical isolates)” value in series [1] (broth microdilution, CAMHB, 20-24hr, 37°C, 5% CO2, lowest concentration that completely inhibits growth) lay within 7.81 to 15.62 µg/mL. The MIC S. pneumoniae (30 clinical isolates), in parentheses in series [1] (setting [6]) lay in the range of 7.81 to 15.6 µg/mL. For the same compound, in series [2] (setting [7]), the “MIC Acinetobacter baumanii ATCC 15308, in parentheses” value is listed as 31.25 (14.7) micromolar. Further, the MIC E. coli ATCC 25922, in parentheses with E. coli ATCC 25922 (setting [6]) is 7.81 µg/mL. The “MIC Enterococcus cloacae, in parentheses” value with Enterococcus cloacae (setting [7]) was >250 (>117) micromolar. Moreover, the “MIC K. pneumoniae, in parentheses” value in the series with K. pneumoniae (setting [7]) is reported as >250 (>117) micromolar. In addition, in [3] (setting [6]), the MIC MRSA, in parentheses amounted to 7.81 µg/mL. In the series on P. aeruginosa ATCC 15442 (setting [6]), the MIC P. aeruginosa ATCC 15442, in parentheses is 31.2 µg/mL. Also, the “MIC citrobacter spp, in parentheses” value with citrobacter spp (setting [7]) is given as >250 (>117) micromolar. Further, in the series with S. aureus ATCC 25923 (setting [6]), the MIC S. aureus ATCC 25923, in parentheses is 7.81 µg/mL. For the same compound, the “concentration at which toxic, NL-20” value in series [4] was no less than 125 µg/mL. Moreover, the “concentration at which toxic, WRL-68” value in series [5] is no less than 62.5 µg/mL. Moreover, in the series with Streptococcus pneumoniae, the “time to completely kill 10^6 CFU/ml of S. pneumoniae” value is listed as no more than 150 min.

In the case of `CC[C@H](C)[C@H](N)C(=O)N[C@@H](CC(C)C)C(=O)N1CCC[C@H]1C(=O)N[C@@H](Cc1c[nH]c2ccccc12)C(=O)N[C@@H](CCCCN)C(=O)N[C@@H](Cc1c[nH]c2ccccc12)C(=O)N1CCC[C@H]1C(=O)N[C@@H](Cc1c[nH]c2ccccc12)C(=O)N[C@@H](Cc1c[nH]c2ccccc12)C(=O)N1CCC[C@H]1C(=O)N[C@@H](Cc1c[nH]c2ccccc12)C(=O)N[C@@H](CCCNC(=N)N)C(=O)N[C@@H](CCCNC(=N)N)C(N)=O` [Indolicidin, reference compound], the MIC S. pneumoniae (30 clinical isolates), in parentheses in [1] (setting [6]) was 15.6 to 31.2 µg/mL (≈ 8.19 to 16.4 µM). The “MIC Acinetobacter baumanii ATCC 15308, in parentheses” value in [2] (setting [7]) is >250 (131) micromolar. Also, the MIC E. coli ATCC 25922, in parentheses in the series with E. coli ATCC 25922 (setting [6]) came out at 31.2 µg/mL (≈ 16.4 µM). Besides, the “MIC Enterococcus cloacae, in parentheses” value in the series on Enterococcus cloacae (setting [7]) is given as >250 (>131) micromolar. Besides, the “MIC K. pneumoniae, in parentheses” value in the series on K. pneumoniae (setting [7]) was >250 (>131) micromolar. The MIC MRSA, in parentheses in [3] (setting [6]) is 31.2 µg/mL (≈ 16.4 µM). In addition, in the series with P. aeruginosa ATCC 15442 (setting [6]), the MIC P. aeruginosa ATCC 15442, in parentheses was found to be 31.2 µg/mL (≈ 16.4 µM). The “MIC citrobacter spp, in parentheses” value in the series on citrobacter spp (setting [7]) was >250 (>131) micromolar. Moreover, the hemolytic activity in the series on human erythrocytes is recorded as 56.98%.
